In patent US20250387406A1, “THERAPY FOR REDUCED OTOTOXICITY FROM CHEMOTHERAPEUTIC AGENT WITH PENTAAZA MACROCYCLIC RING COMPLEX” (GALERA LABS, LLC, priority 2022, published 2025):

Assays:
[1] = test system: rat; settings: Salvemini et al. 1999; cited from earlier work
[2] = test system: hamster; settings: hamster oral mucositis, Murphy et al. 2008; cited from earlier work
[3] = test system: adult mice; settings: lethal total body irradiation, Thompson et al. 2010; cited from earlier work
[4] = test system: rats subjected to an experimental model of colitis; settings: rat colitis model, Cuzzocrea et al. 2001; cited from earlier work
[5] = test system: rat; settings: Salvemini et al. 2001; cited from earlier work
[6] = test system: PARP (poly (ADP ribosyl) polymerase); assay: PARP activation in H1299 (wild type) cells (Western blot); type: cell-based, human
[7] = test system: H460 cells; assay: Hydrogen peroxide, PO-1 probe, H460; type: cell-based, human
[8] = test system: head and neck patients; settings: concurrent chemoradiotherapy; cited from earlier work
[9] = test system: head-and-neck cancer patients; settings: patients undergoing chemoradiation therapy, Anderson 2015; cited from earlier work
[10] = test system: H460 cells; assay: Mitochondrial superoxide, MitoSOX probe, flow cytometer, H460; type: cell-based, human
[11] = test system: H1299 (wild type) cells; assay: Hydrogen peroxide, PO-1 probe, H1299; type: cell-based, human
[12] = test system: rat; settings: rat model, Tuder et al. 2003; cited from earlier work
[13] = test system: CBA/CaJ mice; assay: In vivo multicycle mouse model of cisplatin toxicity; settings: 10 mg/kg GC4419 1 hour prior to 3.0 mg/kg cisplatin IP
[14] = test system: PARP (poly (ADP ribosyl) polymerase); assay: PARP activation in H460 cells (Western blot, 89 kd active/116 kd inactive form); type: cell-based, human
From the text: PARP is a nuclear enzyme involved in DNA repair of single strand breaks and is activated following cell stress including chemotherapy and irradiation.

[15] = test system: H1299 human NSCLC cells, modified to inducibly overexpress catalase (H1299CAT); assay: Survival of H1299CAT cells with GC4419, cisplatin and catalase overexpression; type: cell-based; parameters: dose or concentration left out as unconfirmed; settings: GC4419 added to cisplatin, 120 hours
From the text: CAT overexpression in this line (H1299CAT) was induced by administration of doxycycline, which turned on transcription of the inserted catalase genes.

[16] = test system: H1299 (wild type) cells; assay: Total reactive oxygen species, CellROX probe, flow cytometer, H1299; type: cell-based, human
Protocol: (§1) After the treatments and incubations CellROX fluorogenic probes for total ROS were added for 30 minutes continued incubation and the CellROX signal was measured using a flow cytometer.

[17] = test system: athymic female Nu/Nu (nude) mice; assay: Cisplatin-induced hematotoxicity in SQ20B tumor-bearing nude mice; type: in vivo, mouse
Protocol: 7 week old athymic female Nu/Nu (nude) mice were implanted in a hind leg with SQ20B human head and neck squamous cell carcinoma cells. […] Mice were assessed for blood counts by tail vein blood collection either 2 days or 2 weeks after the treatment period.

[18] = test system: hair cells in mouse cochlea cultures; assay: Cochlear organotypic cultures with cisplatin, hair cell number; type: cell-based
Protocol: Cochlear organotypic cultures. C57BL/10J mice were decapitated on postnatal day 2 or 3. The stria vascularis and spiral ligament was removed and the organ of Corti and spiral ganglion neurons from the middle turn of the cochlea dissected out. The middle turn of the cochlea was placed in a collagen matrix and 1 ml of serum-free BME plus serum free supplement, 1% bovine serum albumin, 2 mM glutamine, 5 mg/ml glucose, and 10 U/ml penicillin on a collagen pre-prepared culture dish. The cochlear explants were incubated at 4% O2, 37° C. in 5% CO2 for 2 h. […] After 24 hours the cultures were fixed for 4 h in 4% paraformaldehyde as previously described (see, e.g., McFadden et al., Toxicol Appl Pharmacol. 2003; 186(1):46-54) and immersed in rhodamine-labeled phalloidin in PBS for 30 min. […] Tissues were examined histologically for inner and outer hair cell organization and number as previously described. Dihydroethidium (DHE) was used to measure oxidative stress. […] The cochlear specimens were incubated with 1 μm DHE for 30 min at 37° C. and then fluorescent images obtained with a confocal laser microscope as previously described (see, e.g., Fetoni et al., The Journal of neuroscience: the official journal of the Society for Neuroscience. 2013; 33(9):4011-23).

[19] = test system: H460 human non-small cell lung carcinoma (NSCLC) cells; assay: Survival of H460 cells in culture with GC4419 and cisplatin; type: cell-based; parameters: dose or concentration left out as unconfirmed; settings: GC4419 added to indicated concentrations of cisplatin, 120 hrs, vs cisplatin alone
Protocol: After 120 hrs the surviving fraction of cells was determined.

[20] = test system: H460 cells; assay: Total reactive oxygen species, CellROX probe, flow cytometer, H460; type: cell-based, human
Protocol: as §1

[21] = test system: Male C57BL/6J mice; assay: Cisplatin-induced acute kidney injury (AKI) model in mice; type: in vivo, mouse
From the text: 4 month old male C57BL/6J mice (young) were purchased from Jackson Laboratories and 18 month old mice (old) were obtained as collaboration with Dr. Amy Sindler (University of Iowa) from the National institute of Aging. All mice were maintained in accordance with ACURF approval #4121235 at the University of Iowa Animal Care facility. Mice were maintained on normal diets and water ad libitum through the course of the experiment.
Animals were weighed every other day following the start of treatment with GC4419.

[22] = test system: hair cells in mouse cochlea cultures; assay: Mouse cochlea cultures with paclitaxel, hair cell number; type: cell-based; settings: 2 μM GC4419 for 48 or 72 hours (24 hour pre-treatment) with paclitaxel 0.1 μM and 1 μM
Protocol: Pups from C57BL/B16 pregnant female mice were decapitated on postnatal day 3. The stria vascularis and spiral ligament were removed, and the cochlea dissected out. The cochlea was placed in 400 ul of DMEM 5% FBS on a collagen pre-prepared culture dish and incubated at 4% O2, 37° C. in 5% CO2 for 24 hours. The medium was then exchanged with new medium that contained paclitaxel 0, 100 nM, and 1 μM, with and without 2 μM GC4419 for 48 hours, or pretreated for 24 hours with 2 μM GC4419 followed by paclitaxel treatment. The explants were then fixed for 1 hour in 4% paraformaldehyde. Specimens were stained with anti-myosin-VIIa antibody. Specimens were mounted and examined under a fluorescence microscope and hair cells counted using the image analysis software Imaris.

[23] = test system: H1299 (wild type) cells; assay: Mitochondrial superoxide, MitoSOX probe, flow cytometer, H1299; type: cell-based, human
[24] = test system: PARP (poly (ADP ribosyl) polymerase); assay: PARP activation in H1299CAT cells with doxycycline induction of CAT overexpression; type: cell-based, human; settings: CAT induced with doxycycline
From the text: When treated with doxcycline, H1299CAT cells express greater levels of human catalase (CAT) than the “parent” cells, H1299 (wild type), eliminating all or part of the H2O2 generated from superoxide by GC4419 or other Mn pentaaza macrocyclic dismutase mimetics.

[25] = test system: hair cells of the cochlea; settings: cited from earlier work
[26] = test system: patients; settings: human, in vivo; cited from earlier work
[27] = H460, GC4419 added to cisplatin or cisplatin plus IR
[28] = H1299, GC4419 added to cisplatin or cisplatin plus IR
[29] = 10 mg/kg GC4419 + cisplatin + IR
[30] = 10 mg/kg GC4419 + cisplatin + IR, 2 days and 2 weeks after end of treatment
[31] = 10 mg/kg GC4419 daily + cisplatin
[32] = 10 mg/kg GC4419 daily from 4 days prior to 10 mg/kg cisplatin until euthanasia
[33] = H460, cisplatin or cisplatin plus IR
[34] = H1299, cisplatin or cisplatin plus IR

[Cl-].[Cl-].[Mn+2].c1cc2nc(c1)CN[C@@H]1CCCC[C@H]1NCCN[C@@H]1CCCC[C@H]1NC2 [GC4403]
inflammation [1]: inhibit inflammation
radiation damage [2]: attenuate the radiation damage
radiation damage [3]: attenuate the radiation damage
injury to the colon [4]: very significantly reduce the injury to the colon
joint disease [5]: prevent joint disease

[Cl][Mn][Cl].c1cc2nc(c1)CN[C@H]1CCCC[C@@H]1NCCN[C@H]1CCCC[C@@H]1NC2 [GC4419]
PARP activity (ratio 89 kd active to 116 kd inactive form) ([6]; 24 μM GC4419 added to 10 μM cisplatin, 24 hr, vs cisplatin): further and significantly p<0.01) increased PARP activity
PARP activity (ratio 89 kd active to 116 kd inactive form) ([6]; 24 M GC4419 added to 6 Gy IR + 1 M cisplatin, 24 hours): significantly increased (p<0.0.05)
PARP activity (ratio 89 kd active to 116 kd inactive form) ([6]; 24 M GC4419 added to 6 Gy IR, 24 hours, vs radiation alone): significantly increased PARP activity
H2O2 (PO-1 probe) [7, 27]: significantly further increases the increase in H2O2
basal levels of H2O2 (PO-1 probe) ([7]; H460, GC4419 alone): significantly increases both the basal levels of H2O2
incidence of chronic kidney disease [8]: significantly decrease the incidence of chronic kidney disease
oral mucositis [9]: reduce oral mucositis
mitochondrial superoxide (MitoSOX signal) [10, 27]: significantly reduced the increase in mitochondrial superoxide
basal levels of mitochondrial superoxide (MitoSOX signal) ([10]; H460, GC4419 alone): significantly reduced the basal levels of mitochondrial superoxide
H2O2 (PO-1 probe) [11, 28]: significantly further increases the increase in H2O2
basal levels of H2O2 (PO-1 probe) ([11]; H1299, GC4419 alone): significantly increases both the basal levels of H2O2
VEGFr inhibitor-induced pulmonary disease [12]: attenuate VEGFr inhibitor-induced pulmonary disease
weight loss (FIG. 14) [13]: reduced the amount of weight loss caused by cisplatin
PARP activity (ratio 89 kd active to 116 kd inactive form) ([14]; 24 μM GC4419 added to 6 Gy IR + 1 μM cisplatin, 24 hr): significantly increased (p<0.01)
PARP activity (ratio 89 kd active to 116 kd inactive form) ([14]; 24 μM GC4419 added to 6 Gy IR, 24 hr, vs radiation alone): significantly increased PARP activity
PARP activity (ratio 89 kd active to 116 kd inactive form) ([14]; 24 M GC4419 added to 1 M cisplatin, 24 hours, vs cisplatin): further and significantly (p<0.01) increased PARP activity
surviving fraction of cells ([15]; with CAT overexpression (doxycycline)): abrogated the GC4419 contribution to cisplatin response
surviving fraction of cells ([15]; without CAT overexpression (wt), vs cisplatin alone): decreased the surviving fraction
total ROS (CellROX signal) ([16]; H1299, 24 M GC4419 used alone): little effect on total ROS
total ROS (CellROX signal) ([16]; H1299, GC4419 added to cisplatin therapy): synergistic effect on total ROS
eosinophil percentage [17, 29]: maintained eosinophil percentage at apparently normal levels
neutrophil percentage [17, 29]: maintained neutrophil percentage at apparently normal levels
leukocyte (WBC) count [17, 30]: stimulated leukocyte (WBC)
lymphocyte subset [17, 30]: proportionally lymphocyte subset production
platelets ([17]; 10 mg/kg GC4419 every day + cisplatin + IR, two days after end of treatments): significantly restored platelet levels
number of hair cells (FIG. 12A) ([18]; GC4419 0.5, 2 or 4 μM with cisplatin, 24 h): dose-dependent protection against hair cell damage
hair cell damage, microscopy images (FIG. 12B) ([18]; GC4419 with cisplatin): reduced damage to the hair cells caused by cisplatin and preserved the number of hair cells
surviving fraction of cells [19]: decreased the surviving fraction
total ROS (CellROX signal) ([20]; H460, 24 M GC4419 used alone): little effect on total ROS
total ROS (CellROX signal) ([20]; H460, GC4419 added to cisplatin therapy): synergistic effect on total ROS
kidney injury molecule 1 (KIM1) biomarker [21, 31]: prevented that injury
neutrophil gelatinase-associated lipocalin (NGAL) biomarker [21, 31]: prevented that injury
survival ([21]; 10 mg/kg GC4419 daily + cisplatin, old mice): prevented cisplatin mortality
weight loss ([21]; 10 mg/kg GC4419 daily + cisplatin, young and old mice): reduced the amount of weight loss
creatinine level [21, 32]: completely prevented these increases in BUN and creatinine
whole blood urea nitrogen (BUN) level [21, 32]: completely prevented these increases in BUN and creatinine
number of hair cells (FIG. 15) [22]: protective effect of GC4419 on the hair cells
mitochondrial superoxide (MitoSOX signal) [23, 28]: significantly reduced the increase in mitochondrial superoxide
basal levels of mitochondrial superoxide (MitoSOX signal) ([23]; H1299, GC4419 alone): significantly reduced the basal levels of mitochondrial superoxide
PARP activation response to cisplatin ([24]; 24 M GC4419 + 1 M cisplatin, 24 hours (p<0.01, FIG. 6B)): significantly (p<0.05) reduced the PARP activation response
PARP activation response to IR+cisplatin ([24]; 24 M GC4419 + 6 Gy IR + 1 M cisplatin, 24 hours (p<0.001, FIG. 6C)): significantly (p<0.05) reduced the PARP activation response
PARP activation response to IR ([24]; 24 M GC4419 + 6 Gy IR, 24 hours (p<0.05, FIG. 6C)): significantly (p<0.05) reduced the PARP activation response

N.N.[Cl][Pt][Cl] [cisplatin, reference compound]
H2O2 (PO-1 probe) [7, 33]: increase in H2O2
damage to inner hair cells (IHCs) [25]: sparing of inner hair cells (IHCs)
damage to outer hair cells (OHCs) [25]: profoundly damages outer hair cells (OHCs)
mitochondrial superoxide (MitoSOX signal) [10, 33]: increase in mitochondrial superoxide
H2O2 (PO-1 probe) [11, 34]: increase in H2O2
mean cHL [26]: 36 dB
total ROS (CellROX signal) ([16]; H1299, 1 M cisplatin or cisplatin plus 6 Gy IR): increased total ROS
total ROS (CellROX signal) ([20]; H460, 1 M cisplatin or cisplatin plus 6 Gy IR): increased total ROS
mitochondrial superoxide (MitoSOX signal) [23, 34]: increase in mitochondrial superoxide
